We go through one sequence from patent US20060148009A1, “Prediction and assessment of immunogenicity” (Xencor, Inc., priority 2004, published 2006).

For the assay, the system named is MHC class II proteins on B cells (DRB1*0701 DQA1*0201 DQB1*0202). Description: Peptide binding assay: competition of biotinylated EBV280-290 binding to B cells, flow cytometry. The following applies: FIG. 29. Here is the method:
Peptide binding to MHC class II proteins on the surface of Epstein-Barr virus-transformed B lymphocytes was tested by quantitative flow cytometric analysis (Busch et al. 1990), with modifications. Low resolution HLA typed B cell lines (DR2 and DR7) were obtained from the Coriell Institute for Medical Research (Camden, N.J.). Those cell lines were HLA typed at high resolution for DRB1, DQA1 and DQB1. The B cell lines GM03107, GM08605, and Jesthom were selected for binding studies. The following MHC allele and reference peptide combinations were used: DRB1*0101 and influenzae peptide HA307-319, […] (SEQ ID NO:48) (Busch, R. 1991); DRB1*0701 and Epstein-Barr virus peptide EBV280-290, […] (SEQ ID NO:49) (Omiya et al., 2002); DRB1*1501 and myelin basic protein MBP84-100, […] (SEQ ID NO:50) (Fridkis-Hareli et al., 2001). A biotin molecule followed by a caproic acid-caproic acid spacer was added to the N-terminus of the reference peptides. The binding of biotinylated peptides to the MHC molecules was tested at various pH values. The pH 5.5 was used to test competition with IFN-β peptides. Detection of peptide binding was done with streptavidin-AlexaFluor546 (Molecular Probes, Eugene, O.R.) in a PCA-96 flow cell counter (Guava Technologies Inc., Hayward, Calif.). […]

HYLKAKEYSHCAWTIVR: the “competition of EBV280-290 peptide binding to B cells” value was “dose-dependent competition”.
